Source: patent publication US20260355225A1 (priority 2022, published 2026)
Where “and” joins values, the source holds several entries; their conditions need not be identical. Equal entries are not always repeated.

Legend:
[1] = Antiviral assay against HIV-1 NL4-3, percentage of infected cells by immunofluorescence (Example 2); settings: human, hela tzmbl cells, Viability Percentages, replicate wells
[2] = tested on: HIV-1 NL4-3; test: as above; settings: Human immunodeficiency virus 1, NL43, 48 h
[3] = Cytotoxicity of D-xylose alone or + insulin, MTT assay, absence of viral infection (Example 2); settings: human, hela tzmbl cells
[4] = tested on: HeLa TZMBL cells; test: as above
[5] = tested on: SARS-CoV-2; test: Antiviral assay, inhibition of virus-induced cytopathic effect (CPE) of SARS-CoV-2 by MTT assay (Example 1); settings: remdesivir at the time of infection; for Viability percentage: 4320 min
[6] = Cytotoxicity of D-xylose, MTT assay, absence of viral infection (Example 1); format: cell-based; settings: monkey, vero cells, remdesivir at the time of infection, read-out: Viability percentage
Method: (§1) Cells (Vero E6) were used, with two modes of administration: either at the same time or 6 h before infection with SARS-CoV-2 (isolated early).
(§2) The readout for this test is CPE, so the infection will be stopped at 72 hpi (hours post-infection), and the compound will remain for the duration of the experiment. In parallel, the cytotoxicity of the same compound concentrations will be tested in the absence of viral infection.
(§3) The day before the experiment, the 8,000 cells/well are seeded in two 96-well plates (clear, Sarstedt), one for the antiviral study and one for the cytotoxicity study.
(§4) 134.4 μl of the 1 M composition is transferred to 1,465.6 μl of infection medium (=84 mM, twice the final maximum concentration).
(§5) Next, the cell support in the cytotoxicity plate is removed.
(§6) Immediately afterwards, 50 μl of undiluted infection medium is added to all the wells.
(§7) Next, 50 μl of infection medium without diluent is added to columns 4 to 6.
(§8) Next, the plate is incubated at 37 °C, 5% CO2 for 48 h.
(§9) After 72 h, when the CPE is evident, an MTT assay is performed for the antiviral and cytotoxicity plates.

[7] = tested on: Vero AD cells; test: as above; format: cell-based; settings: remdesivir at the time of infection
Method: as §1, §2, §3, §4, §5, §6, §7, §8, §9

[8] = tested on: glycated hemoglobin (HbA1c); settings: healthy person; cited from earlier work
[9] = tested on: SARS-CoV-2; settings: pre-incubation of 25 minutes prior to infection; cited from earlier work
[10] = AZT 0.002 μM, 2880 min, 0.002 µM
[11] = AZT 0.007 μM, 2880 min, 0.007 µM
[12] = AZT 0.062 μM, 2880 min, 0.062 µM
[13] = AZT 0.556 μM, 2880 min, 0.556 µM
[14] = AZT 1.667 μM, 2880 min, 1.667 µM
[15] = Triton added to untreated cells as control

Cc1cn([C@H]2C[C@H](N=[N+]=[N-])[C@@H](CO)O2)c(=O)[nH]c1=O [AZT, 3-azido-3-deoxythymidine, reference compound]
viability at 48 h, 0.002 µM ([1]; AZT 0.002 μM): 29.9% | viability at 48 h, 0.007 µM ([1]; AZT 0.007 μM): 48.2% | viability at 48 h, 0.062 µM ([1]; AZT 0.062 μM): 74.2% | viability at 48 h, 0.556 µM ([1]; AZT 0.556 μM): 92.5% | viability at 48 h, 1.667 µM ([1]; AZT 1.667 μM): 96.8% | viability at 48 h, 5 µM ([1]; AZT 5.000 μM): 99.1% | activity at 0.002 µM ([2]; read-out: % Infection, AZT 0.002 μM, replicate wells): 13.3% | activity at 0.007 µM ([2]; read-out: % Infection, AZT 0.007 μM, replicate wells): 9.89% | activity at 0.062 µM ([2]; read-out: % Infection, AZT 0.062 μM, replicate wells): 5.07% | activity at 0.556 µM ([2]; read-out: % Infection, AZT 0.556 μM, replicate wells): 1.7% | activity at 1.667 µM ([2]; read-out: % Infection, AZT 1.667 μM, replicate wells): 0.89% | activity at 5 µM ([2]; read-out: % Infection, AZT 5.000 μM, replicate wells): 0.47% | cytotoxicity at 48 h, 0.007 µM ([3]; Cytotoxicity percentage, AZT 0.007 μM): 5.07% | cytotoxicity at 48 h, 0.062 µM ([3]; Cytotoxicity percentage, AZT 0.062 μM): 4.36% | viability at 48 h, 0.002 µM ([3]; Viability percentage, AZT 0.002 μM): 102% | viability at 48 h, 0.007 µM ([3]; Viability percentage, AZT 0.007 μM): 94.9% | viability at 48 h, 0.062 µM ([3]; Viability percentage, AZT 0.062 μM): 95.6% | viability at 48 h, 0.556 µM ([3]; Viability percentage, AZT 0.556 μM): 97.6% | viability at 48 h, 1.667 µM ([3]; Viability percentage, AZT 1.667 μM): 102% | viability at 48 h, 5 µM ([3]; Viability percentage, AZT 5.000 μM): 96.9% | Results for Cytotoxicity (MTT readout) ([4]; AZT 0.002 μM): 2.455 and 2.474 and 2.438 | Cytotoxicity percentage [4, 10]: −1.89% and −2.69% and −1.17% | Viability percentage [4, 10]: 102.69% and 101.17% | Results for Cytotoxicity (MTT readout) ([4]; AZT 0.007 μM): 2.29 and 2.333 and 2.278 | Cytotoxicity percentage [4, 11]: 3.26% and 5.58% | Viability percentage [4, 11]: 96.74% and 94.42% | Results for Cytotoxicity (MTT readout) ([4]; AZT 0.062 μM): 2.307 and 2.356 and 2.337 | Cytotoxicity percentage [4, 12]: 2.29% and 3.09% | Viability percentage [4, 12]: 97.71% | Results for Cytotoxicity (MTT readout) ([4]; AZT 0.556 μM): 2.353 and 2.414 and 2.406 | Cytotoxicity percentage [4, 13]: 2.42% and −0.16% and 0.18% | Viability percentage [4, 13]: 100.16% and 99.82% | Results for Cytotoxicity (MTT readout) ([4]; AZT 1.667 μM): 2.46 and 2.505 and 2.469 | Cytotoxicity percentage [4, 14]: −2.10% and −4.00% and −2.48% | Viability percentage [4, 14]: 104.00% and 102.48% | Results for Cytotoxicity (MTT readout) ([4]; AZT 5.000 μM): 2.337 and 2.402 and 2.36 | Cytotoxicity percentage ([4]; AZT 5.000 μM, 2880 min, 5 µM): 3.09% and 0.35% and 2.12% | Viability percentage ([4]; AZT 5.000 μM, 2880 min, 5 µM): 99.65% and 97.88%

CCC(CC)COC(=O)[C@H](C)N[P@](=O)(OC[C@H]1O[C@@](C#N)(c2ccc3c(N)ncnn23)[C@H](O)[C@@H]1O)Oc1ccccc1 [Remdesivir, reference compound]
absorbance at 570 nm ([5]; 0.16 μm): 0.086 and 0.077 and 0.078 | absorbance at 570 nm ([5]; 0.31 μm): 0.084 and 0.098 | absorbance at 570 nm ([5]; 0.63 μm): 0.094 | absorbance at 570 nm ([5]; 1.25 μm): 0.127 and 0.137 and 0.128 | Viability percentage ([5]; 1.25 μm): 47.72% and 46.55% and 58.30% | absorbance at 570 nm ([5]; 2.5 μm): 0.178 and 0.195 | Viability percentage ([5]; 2.5 μm): 92.36% and 106.46% and 126.43% | absorbance at 570 nm ([5]; 5 μm): 0.198 and 0.215 and 0.174 | Viability percentage ([5]; 5 μm): 101.76% and 129.96% and 149.93% | absorbance at 570 nm ([5]; 10 μm): 0.169 and 0.199 and 0.188 | Viability percentage ([5]; 10 μm): 118.21% and 95.89% and 131.13% | Viability percentage ([5]; 20 μm): 80.62% and 86.49% and 79.44% | viability at […] ([6]; 0.16 μm): 100% | viability at 0.31 µM ([6]; 0.31 μm): 106% | viability at 0.63 µM ([6]; 0.63 μm): 102% | viability at 1.25 µM ([6]; 1.25 μm): 103% | viability at 2.5 µM ([6]; 2.5 μm): 112% | viability at 5 µM ([6]; 5 μm): 110% | viability at 10 µM ([6]; 10 μm): 105% | viability at 20 µM ([6]; 20 μm): 101% | Viability percentage ([7]; 0.31 μm): 99.84% | Viability percentage ([7]; 0.63 μm): 108.33% | Viability percentage ([7]; 1.25 μm): 110.83% and 112.82% | Viability percentage ([7]; 2.5 μm): 107.83% and 115.32% | Viability percentage ([7]; 5 μm): 122.31% | Viability percentage ([7]; 10 μm): 106.83% | Viability percentage ([7]; 20 μm): 94.35% and 93.35%

OC[C@@H](O)[C@H](O)[C@@H](O)CO [xylitol, reference compound]
effect on glycated hemoglobin (HbA1c) levels [8]: little or no effect

Triton [reference compound]
Cytotoxicity percentage [4, 15]: 99.99% and 100.03% | Results for Cytotoxicity (MTT readout) [4, 15]: 0.040 and 0.039 | Viability percentage [4, 15]: 0.01% and −0.03%

heparin
inhibition of SARS-CoV-2 viral attachment [9]: inhibits SARS-CoV-2 viral attachment
